Source: patent US20100069378A1, “SUBSTITUTED INDANYL SULFONAMIDE COMPOUNDS, THEIR PREPARATION AND USE AS MEDICAMENTS” (LABORATORIOS DEL DR. ESTEVE, S.A., priority 2006, published 2010)
Structures can show the parent of a compound that is named as a salt.

Target: T1, 5HT6 human recombinant receptor (Homo sapiens, UniProt P50406)
T1 construct: purchased Receptor Biology; host or cells: HEK-293 cell membranes (recombinant expression)
Experiment: Binding Test to 5-HT6 Receptors ([3H]-LSD displacement, HEK-293 membranes)
Conditions: [3H]-LSD 2.7 nM, 60 min, 37° C.; for inhibition at 0.1 µM: compound at 10^−7 M; for inhibition at 0.01 µM: compound at 10^−8 M
Procedure: Binding Test to 5-HT6 Receptors
Membranes of HEK-293 cells expressing the 5HT6 human recombinant receptor were supplied by Receptor Biology. In these membranes the receptor concentration is 2.18 pmol/mg protein and the protein concentration is 9.17 mg/ml. The experimental protocol follows the method of B. L. Roth et al. [B. L. Roth, S. C. Craigo, M. S. Choudhary, A. Uluer, F. J. Monsma, Y. Shen, H. Y. Meltzer, D. R. Sibley: Binding of Typical and Atypical Antipsychotic Agents to 5-Hydroxytryptamine-6 and Hydroxytriptamine-7 Receptors. The Journal of Pharmacology and Experimental Therapeutics, 1994, 268, 1403] with slight modifications. The commercial membrane is diluted (dilution 1:40) with the binding buffer: 50 mM Tris-HCl, 10 mM MgCl2, 0.5 mM EDTA (pH 7.4). The radioligand used is [^3H]-LSD at a concentration of 2.7 nM with a final volume of 200 μl. Incubation is initiated by adding 100 μl of the membrane suspension (≈22.9 μg membrane protein), and continues for 60 minutes at a temperature of 37° C. Incubation ends by fast filtration in a Harvester Brandel Cell through glass fibre filters manufactured by Schleicher & Schuell GF 3362 pre-treated with a 0.5% polyethylenimine solution. The filters are washed three times with three millilitres of Tris-HCl 50 mM pH 7.4 buffer. The filters are transferred to phials and to each phial 5 ml of liquid scintillation cocktail Ecoscint H is added. The phials are allowed to reach equilibrium for several hours before being counted in a Wallac Winspectral 1414 scintillation counter. Non-specific binding is determined in the presence of 100 μM serotonin. The tests are performed in triplicate. The inhibition constants (Ki, nM) are calculated by non-linear regression analysis using the program EBDA/LIGAND [Munson and Rodbard, Analytical Biochemistry, 1980, 107, 220].

T1 sequence (P50406 whole entry): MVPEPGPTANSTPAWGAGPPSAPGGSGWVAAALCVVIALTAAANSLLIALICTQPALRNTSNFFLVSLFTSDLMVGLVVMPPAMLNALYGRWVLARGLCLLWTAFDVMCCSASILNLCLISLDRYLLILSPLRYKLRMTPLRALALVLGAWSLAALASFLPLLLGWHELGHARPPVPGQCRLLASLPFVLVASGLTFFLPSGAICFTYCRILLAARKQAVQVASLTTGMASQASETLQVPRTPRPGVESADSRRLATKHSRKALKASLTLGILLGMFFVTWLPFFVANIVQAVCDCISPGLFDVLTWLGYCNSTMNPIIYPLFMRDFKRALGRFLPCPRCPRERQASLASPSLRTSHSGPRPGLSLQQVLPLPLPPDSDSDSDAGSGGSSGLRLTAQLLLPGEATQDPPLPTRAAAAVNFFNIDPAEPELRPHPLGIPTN

## CN1CCN(C2CCc3ccc(NS(=O)(=O)c4c(Cl)nc5sccn45)cc32)CC1 (racemic) [Compound 4, N-[3-(4-methylpiperazin-1-yl)-2,3-dihydro-1H-inden-5-yl]-6-chloroimidazo[2,1-b][1,3]thiazole-5-sulfonamide]
  inhibition at 0.1 µM: 83.4%
  inhibition at 0.01 µM: 63%

## CN1CCN(C2CCc3ccc(NS(=O)(=O)c4ccc5ccccc5c4)cc32)CC1 (centres unmarked) [Compound 2, N-[3-(4-methylpiperazin-1-yl)-2,3-dihydro-1H-inden-5-yl]naphtalene-2-sulfonamide]
  inhibition at 0.1 µM: 89.1%
  inhibition at 0.01 µM: 71.6%

## CN1CCOc2cc(S(=O)(=O)Nc3ccc4c(c3)/C(=N\NC(=N)N)CC4)ccc21 [Compound 23, 2-(6-{[(4-methyl-3,4-dihydro-2H-1,4-benzoxazine-7-yl)sulfonyl]amino}-2,3-dihydro-1H-inden-1-ylidene)hydrazinecarboximidamide hydrochloride]
  inhibition at 0.1 µM: 87.3%
  inhibition at 0.01 µM: 69.3%

## CN1CCN(C2CCc3ccc(N(C)S(=O)(=O)c4c(Cl)nc5sccn45)cc32)CC1 (centres unmarked) [Compound 16, 6-chloro-N-methyl-N-[3-(4-methylpiperazin-1-yl)-2,3-dihydro-1H-inden-5-yl]imidazo[2,1-b][1,3]thiazole-5-sulfonamide]
  inhibition at 0.1 µM: 72.7%
  inhibition at 0.01 µM: 29%

## O=S(=O)(Nc1ccc2c(c1)C(N1CCNCC1)CC2)c1c(Cl)nc2sccn12 (centres unmarked) [Compound 5, N-[3-(piperazin-1-yl)-2,3-dihydro-1H-inden-5-yl]-6-chloroimidazo[2,1-b][1,3]thiazole-5-sulfonamide]
  inhibition at 0.1 µM: 85.6%
  inhibition at 0.01 µM: 63.6%

## Cc1c(S(=O)(=O)Nc2ccc3c(c2)C(N2CCN(C)CC2)CC3)sc2ccc(Cl)cc12 (centres unmarked) [Compound 3, N-[3-(4-methylpiperazin-1-yl)-2,3-dihydro-1H-inden-5-yl]-5-chloro-3-methylbenzo[b]thiophene-2-sulfonamide]
  inhibition at 0.1 µM: 87.9%
  inhibition at 0.01 µM: 55.7%

## CN1CCN(C2CC(C)(C)c3ccc(NS(=O)(=O)c4c(Cl)nc5sccn45)cc32)CC1 (centres unmarked) [Compound 15, 6-chloro-N-[1,1-dimethyl-3-(4-methylpiperazin-1-yl)-2,3-dihydro-1H-inden-5-yl]imidazo[2,1-b][1,3]thiazole-5-sulfonamide]
  inhibition at 0.1 µM: 30.3%
  inhibition at 0.01 µM: -6.6%

## O=S(=O)(Nc1ccc2c(c1)C(=NNC1=NCCN1)CC2)c1c(Cl)nc2sccn12 [Compound 24, 6-chloro-N-[3-(4,5-dihydro-1H-imidazol-2-ylhydrazono)-2,3-dihydro-1H-inden-5-yl]imidazo[2,1-b][1,3]thiazole-5-sulfonamide hydrochloride]
  inhibition at 0.1 µM: 87.7%
  inhibition at 0.01 µM: 83.3%

## CN1CCOc2cc(S(=O)(=O)Nc3ccc4c(c3)C(=NNC3=NCCN3)CC4)ccc21 [Compound 26, N-[3-(4,5-dihydro-1H-imidazol-2-ylhydrazono)-2,3-dihydro-1H-inden-5-yl]-4-methyl-3,4-dihydro-2H-1,4-benzoxazine-7-sulfonamide hydrochloride]
  inhibition at 0.1 µM: 84.6%
  inhibition at 0.01 µM: 51%

## CC1(C)CC(=NNC(=N)N)c2cc(NS(=O)(=O)c3c(Cl)nc4sccn34)ccc21 [Compound 20, 2-(6-{[(6-chloroimidazo[2,1-b][1,3]thiazol-5-yl)sulfonyl]amino}-3,3-dimethyl-2,3-dihydro-1H-inden-1-ylidene)hydrazinecarboximidamide hydrochloride]
  inhibition at 0.1 µM: 87.7%
  inhibition at 0.01 µM: 77.2%

## N=C(N)N/N=C1/CCc2ccc(NS(=O)(=O)c3ccc4ccccc4c3)cc21 [Compound 8, 2-{6-[(2-naphthylsulfonyl)amino]-2,3-dihydro-1H-inden-1-ylidene}hydrazinecarboximidamide hydrochloride]
  inhibition at 0.1 µM: 82.2%
  inhibition at 0.01 µM: 56.1%

## CN(c1ccc2c(c1)/C(=N\NC(=N)N)CC2)S(=O)(=O)c1c(Cl)nc2sccn12 [Compound 22, 2-(6-{[(6-chloroimidazo[2,1-b][1,3]thiazol-5-yl)sulfonyl](methyl)amino}-2,3-dihydro-1H-inden-1-ylidene)hydrazinecarboximidamide hydrochloride]
  inhibition at 0.1 µM: 89.2%
  inhibition at 0.01 µM: 83.9%

## N=C(N)N/N=C1/CCc2ccc(NS(=O)(=O)c3c(Cl)nc4sccn34)cc21 [Compound 9, 2-(6-{[(6-chloroimidazo[2,1-b][1,3]thiazol-5-yl)sulfonyl]amino}-2,3-dihydro-1H-inden-1-ylidene)hydrazinecarboximidamide]
  inhibition at 0.1 µM: 89.6%
  inhibition at 0.01 µM: 84.7%

## N=C(N)NN=C1CCc2cc(NS(=O)(=O)c3c(Cl)nc4sccn34)ccc21 [Compound 21, 2-(5-{[(6-chloroimidazo[2,1-b][1,3]thiazol-5-yl)sulfonyl]amino}-2,3-dihydro-1H-inden-1-ylidene)hydrazinecarboximidamide hydrochloride]
  inhibition at 0.1 µM: 86.9%
  inhibition at 0.01 µM: 78.1%

## CN1CCN(C2CCc3cc(NS(=O)(=O)c4c(Cl)nc5sccn45)ccc32)CC1 (centres unmarked) [Compound 14, 6-chloro-N-[1-(4-methylpiperazin-1-yl)-2,3-dihydro-1H-inden-5-yl]imidazo[2,1b][1,3]thiazole-5-sulfonamide]
  inhibition at 0.1 µM: 85.8%
  inhibition at 0.01 µM: 75.5%

## CC1Cc2ccc(NS(=O)(=O)c3c(Cl)nc4sccn34)cc2/C1=N\NC(=N)N (centres unmarked) [Compound 11, 2-(6-{[(6-chloroimidazo[2,1-b][1,3]thiazol-5-yl)sulfonyl]amino}-2-methyl-2,3-dihydro-1H-inden-1-ylidene)hydrazinecarboximidamide]
  inhibition at 0.1 µM: 91.1%
  inhibition at 0.01 µM: 84.7%
